Experimental data from patent publication US20110111515A1, “REAGENT FOR MEASUREMENT OF REACTIVE OXYGEN” (THE UNIVERSITY OF TOKYO, priority 2008, published 2011).

Key:
Assay type in all cases: physicochemical
[1] = Change of absorbance at maximum absorption wavelength after reaction with reactive oxygen species (Example 2); details: 10 μM dye in 0.1 M phosphate buffer; all reactive oxygen species (hydroxyl radical, peroxynitrite, hypochlorite ion, superoxide anion); FIG. 2
Protocol: (§1) Cy5, Cy7, Compound 2 (cyanine compound constituting the second cyanine compound residue) and Compound 3 (cyanine compound constituting the first cyanine compound residue), the latter two of which were obtained above, were reacted with hydroxyl radical, peroxynitrite, hypochlorite ion, and superoxide anion, and change of absorbance at the maximum absorption wavelength was measured. For the measurement, 10 μM solutions of Cy5, Cy7, Compound 2, and Compound 3 in 0.1 M phosphate buffer were prepared, and the measurement was performed with the prepared solutions under the following conditions.
Hydrogen peroxide and iron(II) perchlorate were added to final concentrations of 1 mM and 50 μM, respectively.
Peroxynitrite was added to a final concentration of 10 μM.
Hypochlorite ions were added to a final concentration of 10 μM.
(§2) Xanthine oxidase and xanthine were added to final concentrations of 4 mU and 33 μM, respectively.
(§3) In the graph, the test results for those reactive oxygen species are indicated in the order of Cy5, Compound 2, Cy7, and Compound 3 from the left.

[2] = Oxidation potential (Ep) of cyanine dyes, saturated calomel electrode as reference; details: saturated calomel electrode (SCE) as reference electrode
[3] = Change of absorbance at maximum absorption wavelength after reaction with superoxide anion (Example 2); details: 10 μM dye in 0.1 M phosphate buffer; xanthine oxidase 4 mU, xanthine 33 μM; FIG. 2
Protocol: as §1, §2, §3

Ep [2] [V vs SCE]	Decrease of absorbance at maximum absorption wavelength for superoxide anion [3]	Molecule	Decrease of absorbance at maximum absorption wavelength upon addition of reactive oxygen species [1]
0.333	–	CN1/C(=C/C=C2\CCCC(/C=C/C3=[N+](C)c4ccccc4C3(C)C)=C2SCCC(=O)O)C(C)(C)c2ccccc21 [Compound 3]	larger decrease of absorbance than did Cy7
0.476	–	CCN1C(=CC=CC=CC=CC2=[N+](CCCCCC(=O)O)c3ccc(S(=O)(=O)O)cc3C2(C)C)C(C)(C)c2cc(S(=O)(=O)[O-])ccc21 [Cy7, reference compound]	larger decrease of absorbance than did Cy5
0.658	no decrease of absorbance	CC1(C)C(/C=C/C=C/C=C2/N(CCC(=O)O)c3ccc(S(=O)(=O)O)cc3C2(C)C)=[N+](CCC(=O)O)c2ccc(S(=O)(=O)O)cc21 [Compound 2]	the smallest decrease of absorbance
0.516	–	Cy5 [reference compound]	–
